Usually GI50 stands for the concentration giving 50% growth inhibition. One may read the pIC50 as −log10 of the IC50, conventionally taken in molar units. Lower therefore signals a high IC50.

pIC50: −log10 of the molar value. Read-outs that look alike come from different tables or passages of the source.

Consider three compounds from paper PMC10026764, “Overcoming the imatinib-resistant BCR-ABL mutants with new ureidobenzothiazole chemotypes endowed with potent and broad-spectrum anticancer activity” (Journal of Enzyme Inhibition and Medicinal Chemistry, 2023).

Assay [1] concerns HOP-62. As to the kind of experiment: NCI-60 five-dose SRB assay. In kind it is cell-based. As to conditions: Homo sapiens; HOP-62, non-small cell lung cancer. In general terms: In SRB staining, fixed cells bind dye roughly in proportion to their protein.
Assay [2] deals with RXF 393. More on the design: method as in earlier work. The note with it: imatinib mesylate NSC 743414, NCI data; cited from earlier work.
For assay [3], the system named is NCI 60-cell line panel. On the set-up: method as in earlier work. The note with it: COLO205, HCC-2998, HCT-116 and HCT-15 colon cancer cells; cited from earlier work.
Assay [4] relates to SN12C. More on the design: method as in earlier work. The note with it: imatinib mesylate NSC 743414, NCI data; cited from earlier work.
Assay [5] has as its system RPMI-8226. On the set-up: method as in earlier work. The note with it: imatinib mesylate NSC 743414, NCI data; cited from earlier work.
The subject of assay [6] is LOX IMVI. More on the design: method as in earlier work. As to conditions: imatinib mesylate NSC 743414, NCI data; cited from earlier work.
The subject of assay [7] is SK-MEL-2. More on the design: method as in earlier work. The note with it: imatinib mesylate NSC 743414, NCI data; cited from earlier work.
Assay [8] deals with MDA-MB-231. On the set-up: method as in earlier work. The note with it: imatinib mesylate NSC 743414, NCI data; cited from earlier work.
Assay [9] relates to NCI-H460. On the set-up: method as in earlier work. The note with it: imatinib mesylate NSC 743414, NCI data; cited from earlier work.
Assay [10] deals with HOP-92. More on the design: method as in earlier work. The note with it: imatinib mesylate NSC 743414, NCI data; cited from earlier work.
The test system of assay [11] is SNB-19. More on the design: method as in earlier work. The note with it: imatinib mesylate NSC 743414, NCI data; cited from earlier work.
Assay [12] has as its system EKVX. More on the design: method as in earlier work. As to conditions: imatinib mesylate NSC 743414, NCI data; cited from earlier work.
Assay [13] relates to SK-MEL-28. More on the design: method as in earlier work. The note with it: imatinib mesylate NSC 743414, NCI data; cited from earlier work.
The test system of assay [14] is HS 578T. On the set-up: method as in earlier work. As to conditions: imatinib mesylate NSC 743414, NCI data; cited from earlier work.
Assay [15] deals with MOLT-4. On the set-up: method as in earlier work. The note with it: imatinib mesylate NSC 743414, NCI data; cited from earlier work.
In assay [16] the test system is HCT-116. On the set-up: method as in earlier work. As to conditions: imatinib mesylate NSC 743414, NCI data; cited from earlier work.
Assay [17] deals with K-562. More on the design: method as in earlier work. The note with it: imatinib mesylate NSC 743414, NCI data; cited from earlier work.
The test system of assay [18] is M14. More on the design: method as in earlier work. As to conditions: imatinib mesylate NSC 743414, NCI data; cited from earlier work.
In assay [19] the test system is BT-549. On the set-up: method as in earlier work. As to conditions: imatinib mesylate NSC 743414, NCI data; cited from earlier work.
Assay [20] concerns UACC-257. More on the design: method as in earlier work. The note with it: imatinib mesylate NSC 743414, NCI data; cited from earlier work.
For assay [21], the system named is HOP-62. More on the design: method as in earlier work. The note with it: imatinib mesylate NSC 743414, NCI data; cited from earlier work.
Assay [22] has as its system HCC-2998. On the set-up: method as in earlier work. As to conditions: imatinib mesylate NSC 743414, NCI data; cited from earlier work.
The test system of assay [23] is SF-539. More on the design: method as in earlier work. The note with it: imatinib mesylate NSC 743414, NCI data; cited from earlier work.
Assay [24] has as its system A549/ATCC. On the set-up: method as in earlier work. The note with it: imatinib mesylate NSC 743414, NCI data; cited from earlier work.
Assay [25] deals with UO-31. On the set-up: method as in earlier work. The note with it: imatinib mesylate NSC 743414, NCI data; cited from earlier work.
In assay [26] the test system is MDA-MB-435. More on the design: method as in earlier work. The note with it: imatinib mesylate NSC 743414, NCI data; cited from earlier work.
Assay [27] deals with NCI/ADR-RES. More on the design: method as in earlier work. As to conditions: imatinib mesylate NSC 743414, NCI data; cited from earlier work.
The subject of assay [28] is SW-620. On the set-up: method as in earlier work. The note with it: imatinib mesylate NSC 743414, NCI data; cited from earlier work.
The test system of assay [29] is NCI-H322M. On the set-up: method as in earlier work. The note with it: imatinib mesylate NSC 743414, NCI data; cited from earlier work.
The subject of assay [30] is CAKI-1. On the set-up: method as in earlier work. As to conditions: imatinib mesylate NSC 743414, NCI data; cited from earlier work.
Assay [31] relates to OVCAR-8. More on the design: method as in earlier work. As to conditions: imatinib mesylate NSC 743414, NCI data; cited from earlier work.
The subject of assay [32] is KM12. More on the design: method as in earlier work. As to conditions: imatinib mesylate NSC 743414, NCI data; cited from earlier work.
In assay [33] the test system is NCI-H23. More on the design: method as in earlier work. As to conditions: imatinib mesylate NSC 743414, NCI data; cited from earlier work.
The test system of assay [34] is SNB-75. On the set-up: method as in earlier work. As to conditions: imatinib mesylate NSC 743414, NCI data; cited from earlier work.
In assay [35] the test system is CCRF-CEM. More on the design: method as in earlier work. The note with it: imatinib mesylate NSC 743414, NCI data; cited from earlier work.
Assay [36] concerns A498. More on the design: method as in earlier work. The note with it: imatinib mesylate NSC 743414, NCI data; cited from earlier work.
Assay [37] relates to NCI-H226. More on the design: method as in earlier work. The note with it: imatinib mesylate NSC 743414, NCI data; cited from earlier work.
The subject of assay [38] is SF-295. On the set-up: method as in earlier work. The note with it: imatinib mesylate NSC 743414, NCI data; cited from earlier work.
The subject of assay [39] is TK-10. On the set-up: method as in earlier work. The note with it: imatinib mesylate NSC 743414, NCI data; cited from earlier work.
Assay [40] deals with HL-60(TB). More on the design: method as in earlier work. As to conditions: imatinib mesylate NSC 743414, NCI data; cited from earlier work.
In assay [41] the test system is NCI-H522. More on the design: method as in earlier work. As to conditions: imatinib mesylate NSC 743414, NCI data; cited from earlier work.
For assay [42], the target named is ABL^M351T (Homo sapiens, UniProt P00519, M351T). As to the kind of experiment: In vitro enzymatic activity, imatinib-resistant mutant panel. In kind it is biochemical.
Assay [43] has as its system EKVX. As to the kind of experiment: NCI-60 five-dose SRB assay. In kind it is cell-based. As to conditions: Homo sapiens, non-small cell lung cancer.
The target of assay [44] is ABL^F317I (Homo sapiens, UniProt P00519, F317I). As to the kind of experiment: In vitro enzymatic activity, imatinib-resistant mutant panel. Type of assay: biochemical.
Assay [45] concerns the target ABL^E255K (Homo sapiens, UniProt P00519, E255K). Described as above.

`COc1ccccc1-c1ccc2nc(NC(=O)Nc3cc(C(F)(F)F)cc(C(F)(F)F)c3)sc2c1` [Compound 2e] gave a GI50 in [1] of 2.1 µM.
For the compound `Cc1ccc(NC(=O)c2ccc(CN3CCN(C)CC3)cc2)cc1Nc1nccc(-c2cccnc2)n1` [Imatinib], the GI50 was 15.1 µM in assay [2]; 12.6 to 21.2 µM in [3]; 33.2 µM in [4]; 6.05 µM in assay [5]; 18.1 µM in assay [6]; 25 µM in assay [7]. For the same compound, the concentration for 50% growth inhibition (GI50) in assay [8] is 18.7 µM; in assay [9] it was 16.2 µM; in [10], 13.3 µM; in [11], 38.6 µM; in [12], 26.2 µM; in [13] it was 14.6 µM. Besides, the 50% growth inhibitory concentration (GI50) is 14.6 µM in [14]; 5.13 µM in [15]; 12.6 µM in [16]; 0.02 µM in assay [17]; 19.3 µM in assay [18]; 16.1 µM in [19]. For the same compound, the GI50 in assay [20] is 21.1 µM; in assay [21], 21.5 µM; in assay [22] it was 21.2 µM; in assay [23] it was 10.6 µM; in assay [24], 24.5 µM; in [25] it was 22.3 µM. The GI50 is 17.9 µM in [26]; 23 µM in assay [27]; 23.4 µM in assay [28]; 22.8 µM in assay [29]; 34 µM in [30]; 27.7 µM in assay [31]. Also, the GI50 is 18.8 µM in assay [32]; 15 µM in assay [33]; 20.3 µM in assay [34]; 17 µM in assay [35]; 22 µM in assay [36]; 18.1 µM in assay [37]. The GI50 in assay [38] was 19.8 µM; in assay [39], 26.9 µM; in assay [40], 13.5 µM; in assay [41], 16.4 µM.
With `CCN1CCN(c2ccc(NC(=O)Nc3nc4ccc(-c5ccccc5OC)cc4s3)cc2)CC1` [Compound 2b], the pIC50 in assay [42] is 8.97; in assay [44], 8.29; in assay [45], 8.61. In assay [43], this compound registered a GI50 of 1.51 µM.
